Reference: patent US9682976B2, “Protein kinase C inhibitors and uses thereof” (Rigel Pharmaceuticals, Inc., priority 2012, dated 2017)
pEC50: −log10 of the molar value.

System: PKC mediated IL-2 production
Assay: IL-2 ELISA, human primary T cell, anti CD3+CD28+
Format: cell-based
Conditions: human primary T cells stimulated with αCD3 and αCD28, 24 hours
Method in brief: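 Human peripheral blood T cells, pre-expanded with αCD3/αCD28 and IL-2 and then washed free of IL-2, were pre-incubated with compound for 1 h at 37° C. They were then stimulated on plates coated with […] αCD3 and 5 μg/ml αCD28, or with 0.5 ng/ml PMA plus 0.1 uM ionomycin in the counter assay. IL-2 in supernatants was measured by ELISA after 24 h.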

Structure (SMILES) | pEC50 (Homo sapiens, T-cell, 24 h) | pEC50
COCCOc1cc(F)c(Nc2ncc(F)c(N[C@@H]3C[C@@H]4CCCN4C(C)(C)C3)n2)cc1-n1nnn(C)c1=O [Compound 158, 1-(5-((4-(((7R,8aS)-5,5-dimethyloctahydroindolizin-7-yl)amino)-5-fluoropyrimidin-2-yl)amino)-4-fluoro-2-(2-methoxyethoxy)phenyl)-4-methyl-1,4-dihydro-5H-tetrazol-5-one] | 6.30 to 7.00 | 
CC(C)N1CCN(c2ccc(Nc3ncc(F)c(N[C@@H]4C[C@@H]5CCCN5C(C)(C)C4)n3)cc2C#N)CC1 [Compound 138, 5-(4-((7R,8aS)-octahydro-5,5-dimethylindolizin-7-ylamino)-5-fluoropyrimidin-2-ylamino)-2-(4-isopropylpiperazin-1-yl)benzonitrile] | > 7.00 | 
Cn1nnn(-c2cc(Nc3ncc(F)c(N[C@@H]4C[C@@H]5CCCN5C(C)(C)C4)n3)c(F)cc2C#CCO)c1=O [Compound 96, 1-(5-(4-((7R,8aS)-octahydro-5,5-dimethylindolizin-7-ylamino)-5-fluoropyrimidin-2-ylamino)-4-fluoro-2-(3-hydroxyprop-1-ynyl)phenyl)-4-methyl-1H-tetrazol-5(4H)-one] | > 7.00 | 
Cn1nnn(-c2cc(Nc3ncc(F)c(N[C@@H]4C[C@@H]5CCCN5C(C)(C)C4)n3)c(F)cc2Br)c1=O [Compound 91, 1-(5-(4-((7R,8aS)-octahydro-5,5-dimethylindolizin-7-ylamino)-5-fluoropyrimidin-2-ylamino)-2-bromo-4-fluorophenyl)-4-methyl-1H-tetrazol-5(4H)-one] | > 7.00 | 
CC1(C)C[C@H](Nc2nc(Nc3ccc(O[C@H]4CCNC[C@@H]4F)c(Cl)c3)ncc2F)C[C@@H]2CCCN21 [Compound 123] | > 7.00 | 
Cn1nnn(-c2cc(Nc3ncc(F)c(N[C@@H]4C[C@@H]5CCCN5C(C)(C)C4)n3)c(F)cc2OCC2(CO)COC2)c1=O [Compound 165, 1-(5-((4-(((7R,8aS)-5,5-dimethyloctahydroindolizin-7-yl)amino)-5-fluoropyrimidin-2-yl)amino)-4-fluoro-2-((3-(hydroxymethyl)oxetan-3-yl)methoxy)phenyl)-4-methyl-1,4-dihydro-5H-tetrazol-5-one] | 6.00 to 6.30 | 
CC1(C)CC(Nc2nc(Nc3ccc(OC4CCOCC4)c(C#N)c3)ncc2F)CC2CCCN21 (centres unmarked) [Compound 41, 5-(5-fluoro-4-(octahydro-5,5-dimethylindolizin-7-ylamino)pyrimidin-2-ylamino)-2-(tetrahydro-2H-pyran-4-yloxy)benzonitrile] | 6.30 to 7.00 | 
C[C@@H](CO)Oc1ccc(Nc2ncc(F)c(N[C@@H]3C[C@@H]4CCCN4C(C)(C)C3)n2)cc1-n1nnn(C)c1=O [Compound 135, 1-(5-((4-(((7R,8aS)-5,5-dimethyloctahydroindolizin-7-yl)amino)-5-fluoropyrimidin-2-yl)amino)-2-(((S)-1-hydroxypropan-2-yl)oxy)phenyl)-4-methyl-1,4-dihydro-5H-tetrazol-5-one] | > 7.00 | 
Cn1nnn(-c2cc(Nc3ncc(F)c(N[C@@H]4C[C@@H]5CCCN5C(C)(C)C4)n3)c(F)cc2OCC2CCO2)c1=O (stereo partly drawn) [Compound 167, 1-(5-((4-(((7R,8aS)-5,5-dimethyloctahydroindolizin-7-yl)amino)-5-fluoropyrimidin-2-yl)amino)-4-fluoro-2-(oxetan-2-ylmethoxy)phenyl)-4-methyl-1,4-dihydro-5H-tetrazol-5-one] | 6.30 to 7.00 | 
CC1(C)CC[C@H]2C[C@@H](Nc3nc(Nc4ccc(OC5CC(OCc6ccccc6)C5)c(Cl)c4)ncc3F)CCN21 (stereo partly drawn) [Compound 310, N2-(4-(3-(Benzyloxy)cyclobutoxy)-3-chlorophenyl)-N4-((7S,8aS)-3,3-dimethyloctahydroindolizin-7-yl)-5-fluoropyrimidine-2,4-diamine] | 5.00 to 6.00 | 
CC1(C)C[C@H](Nc2nc(Nc3ccc(OC4CCNCC4O)c(Cl)c3)ncc2F)C[C@@H]2CCCN21 (some centres unmarked) [Compound 124] | 6.30 to 7.00 | 
CC1(C)C[C@H](Nc2nc(Nc3ccc4c(c3)-n3nnnc3C3(CCOCC3)O4)ncc2F)C[C@@H]2CCCN21 [Compound 137, N4-((7R,8aS)-5,5-dimethyloctahydroindolizin-7-yl)-5-fluoro-N2-(2′,3′,5′,6′-tetrahydrospiro[benzo[b]tetrazolo[1,5-d][1,4]oxazine-4,4′-pyran]-8-yl)pyrimidine-2,4-diamine] | > 7.00 | 
Cn1nnn(-c2cc(Nc3ncc(F)c(N[C@@H]4C[C@@H]5CCCN5C(C)(C)C4)n3)c(F)cc2OCC2CCOCC2)c1=O [Compound 170, 1-(5-((4-(((7R,8aS)-5,5-dimethyloctahydroindolizin-7-yl)amino)-5-fluoropyrimidin-2-yl)amino)-4-fluoro-2-((tetrahydro-2H-pyran-4-yl)methoxy)phenyl)-4-methyl-1,4-dihydro-5H-tetrazol-5-one] | 6.30 to 7.00 | 
Cc1nnnn1-c1cc(Nc2ncc(F)c(N[C@@H]3C[C@@H]4CCCN4C(C)(C)C3)n2)ccc1F [Compound 141, N4-((7R,8aS)-5,5-dimethyloctahydroindolizin-7-yl)-5-fluoro-N2-(4-fluoro-3-(5-methyl-1H-tetrazol-1-yl)phenyl)pyrimidine-2,4-diamine] | > 7.00 | 
CC1(C)Oc2ccc(Nc3ncc(F)c(N[C@H]4C[C@H]5CCCN5C(C)(C)C4)n3)cc2-n2nnnc21 [Compound 102, N2-(4,4-dimethyl-4H-benzo[b]tetrazolo[1,5-d][1,4]oxazin-8-yl)-N4-((7S,8aR)-5,5-dimethyloctahydroindolizin-7-yl)-5-fluoropyrimidine-2,4-diamine] | 6.30 to 7.00 | 
CC1(C)C[C@H](Nc2nc(Nc3cc(-n4cnnn4)c(C4CC4)cc3F)ncc2F)C[C@@H]2CC(F)(F)CN21 [Compound 46, N^2-(4-cyclopropyl-2-fluoro-5-(1H-tetrazol-1-yl)phenyl)-5-fluoro-N^4-((7R,8aR)-2,2-difluoro-octahydro-5,5-dimethylindolizin-7-yl)pyrimidine-2,4-diamine] | 6.00 to 6.30 | 

Now from value to compound:

pEC50 (Homo sapiens, T-cell, 24 h) | pEC50 | Structure (SMILES)
6.00 to 6.30 |  | Cn1nnn(-c2cc(Nc3ncc(Cl)c(N[C@@H]4C[C@@H]5CCCN5C(C)(C)C4)n3)c(F)cc2O)c1=O [Compound 232, 1-(5-((5-chloro-4-(((7R,8aS)-5,5-dimethyloctahydroindolizin-7-yl)amino)pyrimidin-2-yl)amino)-4-fluoro-2-hydroxyphenyl)-4-methyl-1,4-dihydro-5H-tetrazol-5-one]
< 5.00 |  | COc1ccc(Nc2ncc(F)c(N[C@@H]3C[C@@H]4CCCN4C(C)(C)C3)n2)cc1-n1nn[nH]c1=O [Compound 277, 1-(5-(4-((7R,8aS)-octahydro-5,5-dimethylindolizin-7-ylamino)-5-fluoropyrimidin-2-ylamino)-2-methoxyphenyl)-1H-tetrazol-5(4H)-one]
> 7.00 |  | C[C@H](O)COc1cc(F)c(Nc2ncc(Cl)c(N[C@@H]3C[C@@H]4CCCN4C(C)(C)C3)n2)cc1-n1nnn(C)c1=O [Compound 235, 1-(5-((5-chloro-4-(((7R,8aS)-5,5-dimethyloctahydroindolizin-7-yl)amino)pyrimidin-2-yl)amino)-4-fluoro-2-((S)-2-hydroxypropoxy)phenyl)-4-methyl-1,4-dihydro-5H-tetrazol-5-one]
> 7.00 |  | Cn1nnn(-c2cc(Nc3ncc(Cl)c(N[C@@H]4C[C@@H]5CCCN5C(C)(C)C4)n3)c(F)cc2OCCO)c1=O [Compound 237, 1-(5-((5-chloro-4-(((7R,8aS)-5,5-dimethyloctahydroindolizin-7-yl)amino)pyrimidin-2-yl)amino)-4-fluoro-2-(2-hydroxyethoxy)phenyl)-4-methyl-1,4-dihydro-5H-tetrazol-5-one]
> 7.00 |  | CSc1nnnn1-c1cc(Nc2ncc(F)c(N[C@@H]3C[C@@H]4CCCN4C(C)(C)C3)n2)ccc1C [Compound 281, 5-fluoro-N4-((7R,8aS)-octahydro-5,5-dimethylindolizin-7-yl)-N2-(4-methyl-3-(5-(methylthio)-1H-tetrazol-1-yl)phenyl)pyrimidine-2,4-diamine]
< 5.00 |  | Cc1ccc(Nc2ncc(F)c(N[C@@H]3C[C@@H]4CCCN4C(C)(C)C3)n2)cc1-n1nnnc1S(C)(=O)=O [Compound 286, 5-fluoro-N4-((7R,8aS)-octahydro-5,5-dimethylindolizin-7-yl)-N2-(4-methyl-3-(5-(methylsulfonyl)-1H-tetrazol-1-yl)phenyl)pyrimidine-2,4-diamine]
 | 6.00 to 6.30 | Cn1nnn(-c2cc(Nc3ncc(F)c(N[C@@H]4C[C@@H]5CCCN5C(C)(C)C4)n3)c(F)cc2OCCN)c1=O [Compound 231, 1-(2-(2-aminoethoxy)-5-((4-(((7R,8aS)-5,5-dimethyloctahydroindolizin-7-yl)amino)-5-fluoropyrimidin-2-yl)amino)-4-fluorophenyl)-4-methyl-1,4-dihydro-5H-tetrazol-5-one]
> 7.00 |  | CC(O)COc1cc(F)c(Nc2ncc(Cl)c(N[C@@H]3C[C@@H]4CCCN4C(C)(C)C3)n2)cc1-n1nnn(C)c1=O (stereo partly drawn) [Compound 236, 1-(5-((5-chloro-4-(((7R,8aS)-5,5-dimethyloctahydroindolizin-7-yl)amino)pyrimidin-2-yl)amino)-4-fluoro-2-(2-hydroxypropoxy)phenyl)-4-methyl-1,4-dihydro-5H-tetrazol-5-one]
5.00 to 6.00 |  | CC1(C)Oc2ccc(Nc3ncc(F)c(N[C@@H]4C[C@@H]5CCCN5C(C)(C)C4)n3)cc2-n2c1nn(CCO)c2=O [Compound 268, 5-fluoro-N2-(1H-2,4-dihydron-2-(2-hydroxyethyl)-4,4-dimethyl-[1,2,4]triazolo[3,4-c][1,4]benzoxazin-1-one-8-yl)-N4-((7R,8aS)-octahydro-5,5-dimethylindolizin-7-yl)pyrimidine-2,4-diamine]
6.30 to 7.00 |  | Cn1nnn(-c2cc(Nc3ncc(F)c(N[C@@H]4C[C@@H]5CCCN5C(C)(C)C4)n3)c(F)cc2OCCNC(=O)OC(C)(C)C)c1=O [Compound 226, tert-butyl (2-(4-((4-(((7R,8aS)-5,5-dimethyloctahydroindolizin-7-yl)amino)-5-fluoropyrimidin-2-yl)amino)-5-fluoro-2-(4-methyl-5-oxo-4,5-dihydro-1H-tetrazol-1-yl)phenoxy)ethyl)carbamate]
